The values that follow are results of earlier work, collected in PMC8228323, “Biodegradation of L-Valine Alkyl Ester Ibuprofenates by Bacterial Cultures” (Materials, 2021).

One series deals with microorganisms. The arrangement: method as in PMID 22644530, PMID 23262323, doi:10.4314/jasem.v25i3.5, PMID 33724810, PMID 33601200. The settings on record: at the applied concentration.
Details of series [1]: method as in PMID 20111784. Conditions: CO2 released, 0 to 28 days.

With `CC(C)Cc1ccc(C(C)C(=O)O)cc1` (centres unmarked) [IBU, ibuprofen], the “Inhibition of microbial activity” value in the series on microorganisms is “did not inhibit the microbial activity”.

Regarding `CCCCCCCCCCCCOS(=O)(=O)[O-].[Na+]` [SDS, sodium dodecyl sulfate], the Degree of biodegradability result in series [1] is “about 95%”.

On to `CCCCCCCCOS(=O)(=O)[O-].CCCCOCCOC(=O)Cn1cc[n+](C)c1` [[BuOCH2CH2OCOCH2min][OctOSO3]], for which, in series [1], the Degree of biodegradability entry is recorded as “more than 60%”.

As for `CCCCCCCCOS(=O)(=O)[O-].CCOCCOC(=O)Cn1cc[n+](C)c1` [[EtOCH2CH2OCOCH2min][OctOSO3]], in series [1], the Degree of biodegradability is 59%.

In the case of `CCCCCCCCOS(=O)(=O)[O-].CCCOCCOC(=O)Cn1cc[n+](C)c1` [[PrOCH2CH2OCOCH2min][OctOSO3]], the Degree of biodegradability entry in series [1] was “more than 60%”.
